What was measured:
Assay type in all cases: cell-based
[1] = test system: Salmonella choleraesuis; assay: MBEC device biofilm photodynamic killing (Example 1); set-up: key to Killing of Salmonella cholerasuis biofilm (eradication or growth): “−” = biofilm eradication at the mentioned conditions (concentration, exposure time and Light source); “+” = biofilm growth; conditions: for Killing of Salmonella cholerasuis biofilm (eradication or growth): 16 Hours exposure
Source text: (§1) Test microorganisms included Salmonella choleraesuis, Staphylococcus aureus, foodborne pathogens of humans. Test Compounds included Methylene blue, Hemoglobin (blood product), Hemin (blood product), Protoporphyrin (blood product), Annatto Extract (15% Norbixin), beet juice, Canthaxanthin (10%), Beta-carotene (1%), Purple carmine 50%, Carmine lake 60%, Black Carrot extract, Tomato lycopene (5%), sodium copper chlorophyllin, grape skin extract, paprika oleoresin, riboflavin, saffron, titanium dioxide, FD&C blue No1., turmeric oleoresin, FD&C blue No. 2, FD&C Green No. 3, FD&C Red No. 2 (Amaranth), FD&C Red No. 40, FD&C Yellow No. 5, and FD&C Yellow No. 6. Compounds were prepared as 1%, 0.1%, 0.01%, by weight, dissolved in water.
(§2) The light source was a full spectrum fluorescent light or LED light and the contact time was 1 and 16 hours. The study temperature was 37° C.
(§3) Approximately 10^6 organisms in 150 uL Cation Adjusted Mueller Hinton Broth (CAMHB) were placed in each of the wells of a 96 peg MBEC device. The lid of the 96 peg MBEC device was placed on the bottom plate containing organism. The device was placed on a shaker, set to 110 rpm, and incubated at 37° C. for 24 hours to produce biofilms.
(§4) The challenge plates were set up using a sterile 96-well microtitre plate using aseptic techniques in the following manner (one organism per plate, per light exposure time, per light source). Test solutions (200 uL) were placed into each well. The lid was transferred to the challenge plate and exposed to the various light sources for the prescribed exposure times (16 hours). Following the treatment, the pegs were transferred to the recovery media (“recovery plate”) then wrapped in tin foil and incubated at 37° C. for 18 to 24 hours. The recovery plate(s) was wrapped in tin foil, incubated at 37° C. for 24 hours and read visually and by a plate reader, set to an optical density measurement of 630 nm, to determine Minimum Biofilm Eradication Concentration (MBEC) by looking at growth or no growth.

[2] = test system: Staphylococcus aureus; assay: as above; set-up: key to Killing of Staph aureus biofilm (eradication or growth): “−” = biofilm eradication at the mentioned conditions (concentration, exposure time and Light source); “+” = biofilm growth; conditions: 16 Hours exposure
Source text: as §1, §2, §3, §4

[3] = test system: Salmonella choleraesuis; assay: Photocatalytic food dyes Log10 counts (Example 2); conditions: S. choleraesuis, Control 7.28
Source text: as §1, §2, §3, §4
(§5) The test was conducted as shown in Example 1, but using Hemin (blood product), Protoporphyrin (blood product), Annatto Extract, and Turmeric. The group of tests organism also included E. Coli 0157H7.

[4] = test system: E. coli 0157H7; assay: Photocatalytic food dyes Log10 counts (Example 2)
Source text: as §1, §2, §3, §4, §5

[5] = test system: Staphylococcus aureus; assay: Photocatalytic food dyes Log10 counts (Example 2); conditions: Staph. aureus
Source text: as §1, §2, §3, §4, §5

[6] = test system: Pseudomonas syringae HB9; assay: Photodynamic activity on plant bacterial pathogen (Example 4)
Method: Test microorganism included Pseudomonas syringae, a food spoilage microorganism and plant pathogen. Test Compounds included Hemin (blood product), Annatto Extract, and Turmeric. Compounds were prepared as 1%, 0.1%, 0.01%, by weight, in 30% Mueller Hinton Broth in phosphate buffered saline. The light source was a broad spectrum fluorescent light or an LED light and the contact time was 16 hours. The study temperature was 28° C.
Approximately 10^6 organisms in 150 uL Cationic
Adjusted Mueller Hinton Broth were placed in each of the wells of a 96 peg MBEC device. The lid of the 96 peg MBEC device was placed on the bottom plate containing organism. The device was placed on a shaker, set to 110 rpm, and incubated at 28° C. for 24 hours.
The challenge plates were set up using a sterile 96-well microtitre plate using aseptic techniques in the following manner (one organism per plate, per light exposure time, per light source). Test solutions (200 uL) were placed into each well. The lid was transferred to the challenge plate and exposed to the various light sources for the prescribed exposure times (16 hours). Following the treatment, the pegs were transferred to the recovery media (“recovery plate”) then wrapped in tin foil and incubated at 28° C. for 18 to 24 hours.
The recovery plate(s) was wrapped in tin foil, incubated at 28° C. for 24 hours and read visually and by a plate reader, set to an optical density measurement of 630 nm, to determine MBEC growth.

[7] = Fluorescent Light 16 hours, 0.01%
[8] = Fluorescent Light 16 hours, 0.1%
[9] = Fluorescent Light 16 hours, 0.01%, Control 6.51
[10] = Fluorescent Light 16 hours, 0.1%, Control 6.51
[11] = Fluorescent Light 16 hours, 1%, Control 6.51
[12] = LED Light 16 hours, 0.01%, Control 6.36
[13] = LED Light 16 hours, 0.1%, Control 6.36
[14] = LED Light 16 hours, 1%, Control 6.36
[15] = Fluorescent Light 16 hours, 0.01%, Control 6.48
[16] = Fluorescent Light 16 hours, 0.1%, Control 6.48
[17] = Fluorescent Light 16 hours, 1%, Control 6.48
[18] = LED Light 16 hours, 0.01%, Control 6.95
[19] = LED Light 16 hours, 0.1%, Control 6.95
[20] = LED Light 16 hours, 1%, Control 6.95

| Compound | Killing of Salmonella cholerasuis biofilm (eradication or growth) ([1]; Fluorescent Light, 0.01%) | Killing of Salmonella cholerasuis biofilm (eradication or growth) ([1]; Fluorescent Light, 0.1%) | Killing of Salmonella cholerasuis biofilm (eradication or growth) ([1]; Fluorescent Light, 1%) | Killing of Salmonella cholerasuis biofilm (eradication or growth) ([1]; LED Light, 0.01%) | Killing of Salmonella cholerasuis biofilm (eradication or growth) ([1]; LED Light, 0.1%) | Killing of Salmonella cholerasuis biofilm (eradication or growth) ([1]; LED Light, 1%) | Killing of Staph aureus biofilm (eradication or growth) ([2]; Fluorescent Light, 0.01%) | Killing of Staph aureus biofilm (eradication or growth) ([2]; Fluorescent Light, 0.1%) | Killing of Staph aureus biofilm (eradication or growth) ([2]; Fluorescent Light, 1%) | Killing of Staph aureus biofilm (eradication or growth) ([2]; LED Light, 0.01%) | Killing of Staph aureus biofilm (eradication or growth) ([2]; LED Light, 0.1%) | Killing of Staph aureus biofilm (eradication or growth) ([2]; LED Light, 1%) | Average Log10 counts [3, 7] [Log10] | Average Log10 counts [3, 8] [Log10] | Average Log10 counts ([3]; Fluorescent Light 16 hours, 1%) [Log10] | Average Log10 counts ([3]; LED Light 16 hours, 0.01%) [Log10] | Average Log10 counts ([3]; LED Light 16 hours, 0.1%) [Log10] | Average Log10 counts ([3]; LED Light 16 hours, 1%) [Log10] | Average Log10 counts [4, 9] [Log10] | Average Log10 counts [4, 10] [Log10] | also measured |
| --- | --- | --- | --- | --- | --- | --- | --- | --- | --- | --- | --- | --- | --- | --- | --- | --- | --- | --- | --- | --- | --- |
| Hemin | − | − | − | + | + | − | + | + | + | + | + | + | 2.79 | 3.85 | 4.55 | 4.02 | 4.48 | 4.74 | 3.17 | 3.79 | effective as photodynamic agent in killing biofilm organisms ([1]; Salmonella choleraesuis and Staphylococcus aureus biofilm, summary of Table 1): Effective; Average Log10 counts [4, 11]: 3.06 Log10; Average Log10 counts [4, 12]: 4.18 Log10; Average Log10 counts [4, 13]: 4.22 Log10; Average Log10 counts [4, 14]: 0.00 Log10; Average Log10 counts [5, 15]: 2.21 Log10; Average Log10 counts [5, 16]: 0.79 Log10; Average Log10 counts [5, 17]: 0.00 Log10; Average Log10 counts [5, 18]: 5.52 Log10; Average Log10 counts [5, 19]: 3.75 Log10; Average Log10 counts [5, 20]: 1.51 Log10; Average Log10 growth reductions [6, 7]: 1.07 log10 CFU; Average Log10 growth reductions [6, 8]: 0.92 log10 CFU; Average Log10 growth reductions ([6]; Fluorescent Light 16 hours, 1%): 1.51 log10 CFU; Average Log10 growth reductions ([6]; LED Light 16 hours, 0.01%): 1.48 log10 CFU; Average Log10 growth reductions ([6]; LED Light 16 hours, 0.1%): 1.32 log10 CFU; Average Log10 growth reductions ([6]; LED Light 16 hours, 1%): 3.97 log10 CFU |
| CN(C)c1ccc2nc3ccc(=[N+](C)C)cc-3sc2c1 [Methylene blue, reference compound] | − | − | − | − | − | − | − | − | − | − | − | − | 0.00 | 0.00 | 0.00 | 2.27 | 0.00 | 3.20 | 3.41 | 0.79 | Average Log10 counts [4, 11]: 0.35 Log10; Average Log10 counts [4, 12]: 1.77 Log10; Average Log10 counts [4, 13]: 0.00 Log10; Average Log10 counts [4, 14]: 0.00 Log10; Average Log10 counts [5, 15]: 3.20 Log10; Average Log10 counts [5, 16]: 0.00 Log10; Average Log10 counts [5, 17]: 0.00 Log10; Average Log10 counts [5, 18]: 5.71 Log10; Average Log10 counts [5, 19]: 5.40 Log10; Average Log10 counts [5, 20]: 4.84 Log10 |

— patent US20100266716A1, “Natural Photodynamic Agents and their use” (priority 2007, published 2010)
